Measurements from patent US12448383B2, “Compounds and methods for treatment of viral infections” (priority 2022, dated 2025).

Legend:
Plasma stability = format: in vitro ADME; design: unit not given here; details: 37° C., 2 μM substrate
How it was run: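 Reaction mixture was sampled at 0.05, 0.5, 1, 2, 3 and 4 hr into quench solution containing internal standard, then centrifuged and diluted with water. Remaining analyte was measured by LC-MS on a Q-Exactive using a formic acid/acetonitrile gradient, with 5 ppm mass tolerance.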

[1] = Thermodynamic solubility in pH7 buffered solution; details: 50 mM phosphate buffer pH7, 150 mM NaCl, ambient temperature, 24 hours
How it was run: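 Solid shaken 24 h at ambient temperature in 50 mM phosphate buffer pH7 with 150 mM NaCl. Supernatant diluted in 30:70 acetonitrile:water and quantified by UPLC-UV.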

[2] = Stability in pH7 buffered solution; format: physicochemical; details: pH7 phosphate buffer, 40° C., Table N2
How it was run: (§1)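 Compounds diluted from 1 mg/mL acetonitrile stock to 50 μg/mL in 50 mM phosphate buffer with 150 mM NaCl at pH2 or pH7, held at 40° C. for 24 hrs. UPLC sampling at 0, 3, 6, 9, 12 hrs, plus 24 hrs from oven-stored duplicate; reported as % area normalized of compound peak.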

[3] = Stability in pH2 buffered solution; format: physicochemical; details: pH2 phosphate buffer, 40° C., 24 h; Table N2
How it was run: as §1

[4] = GI S9 stability - no PMSF; format: in vitro ADME; details: pH 7.4; human intestinal S9, PMSF-free; read-out: GIS9-HUMAN-NoPMSF T1/2
How it was run: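 Compounds were incubated at 2 μM with PMSF-free intestinal S9 (1 mg/mL protein) in 100 mM PBS, pH 7.4, sampling at 6 time points over 120 min. Parent disappearance and formation of the nucleoside metabolite Reference Compound A were quantified by LC-MS (Q-Exactive) using analyte/internal standard peak area ratios.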

[5] = CC50 MT4 cytotoxicity (Cell-Titer Glo); format: cell-based; details: human
How it was run: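 Uninfected MT-4 and HEp-2 cells cultured 4-5 days at 37° C with 3-fold serially diluted compound (15 nM to 100,000 nM). Viability read by Cell-Titer Glo luminescence; untreated and 2 μM puromycin wells set 100% and 0%. CC50 from non-linear regression as concentration reducing viability by 50%.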

[6] = tested on: Respiratory syncytial virus recombinant with luciferase (RSV-Luc5) in Normal Human Bronchial Epithelial (NHBE) cells; experiment: microbe, parasite or virus in culture; format: cell-based; details: read-out: EC50 RSVFluc-NHBE 384 V2
[7] = tested on: SARS Coronavirus 2 recombinant with NanoLuc (SARS-CoV2-NLuc) in A549-hACE2 cells; experiment: microbe, parasite or virus in culture; format: cell-based; details: A549; read-out: EC50 SARS CoV2 NanoLuc A549 384

CC(C)OC(=O)Nc1ncnn2c([C@]3(C#N)O[C@H](COC(=O)OC(C)C)[C@@H](O)[C@H]3O)ccc12 [Compound 137, isopropyl (7-((2R,3R,4S,5R)-2-cyano-3,4-dihydroxy-5-(((isopropoxycarbonyl)oxy)methyl)tetrahydrofuran-2-yl)pyrrolo[2, i-f][1,2,4]triazin-4-yl)carbamate]
STA Human Plasma 37 (Plasma stability): 676.3
Sol pH 7 [1]: 0.13
pH 7 Stability 24 h % AN [2]: 97 % AN
pH 2 Stability 24 h % AN [3]: 80 % AN
half-life at 2 µM [4]: 8.05 min
CC50 [5]: > 50 µM
EC50 [6]: 9.52 µM
EC50 [7]: > 50 µM
